Data on three compounds can be found in patent publication US7323303B2, “Modified β-lactamases and uses thereof” (priority 2003, dated 2008).

In experiment [1] the target is T1, E. coli TEM-1 β-lactamase (Escherichia coli, UniProt P62593).
T1 construct: made in house; host or cells: E. coli BL21(DE3); whole overnight culture used undiluted, not purified
Briefly: Drug screening: E166Cf fluorescence in presence of bacterial β-lactamase culture. It is filed as biochemical. Also on record: key: −: Decline in fluorescence signal (presence of beta-lactam hydrolysis); +: No decline in fluorescence signal (absence of beta-lactam hydrolysis). The note with it: E. coli TEM-1 culture, undiluted; antibiotic 1.0×10^−4 M; E166Cf 1.2×10^−7 M. On the procedure:
(§1) The use of the E166Cf enzyme in screening bacterial β-lactamases against various β-lactam antibiotics was investigated. The principle of our method is that when both E166Cf and bacterial β-lactamase are incubated with ‘β-lactamase-unstable’ antibiotics, the fluorescence of the E166Cf enzyme will be suppressed because of the greater catalytic efficiency of the bacterial enzyme. In contrast, when bacterial β-lactamases are screened against ‘β-lactamase-resistant’ antibiotics, the fluorescence of the E166Cf enzyme will be enhanced because of the poor hydrolytic activity of the bacterial enzyme. Thus, any β-lactam antibiotic that causes the labeled enzyme to increase its fluorescence intensity in the presence of bacterial β-lactamases can be used in clinical treatments.
The TEM-1 β-lactamase was expressed in E. coli. BL21(DE3). Preparation of the TEM-1 β-lactamase was performed as follows. A bacterial strain was streaked on an agar plate containing 100 μg/ml ampicillin, and the plate was incubated at 37° C. for 24 h. A single bacterial colony from the plate was inoculated into 100 ml of sterilized LB broth (28 g/l) which was then incubated at 37° C. with shaking at 280 rpm overnight. After overnight incubation, the bacterial culture was harvested and stored at −20° C.
(§2) Fluorescence measurements of the E166Cf enzyme in the presence of bacterial cultures and β-lactam antibiotics were performed on a FLUOstar microplate reader (BMG Labtechnologies) equipped with two sample injectors. Excitation and emission filters of 485 and 520 nm respectively were used. For B. cereus penPC β-lactamase, B. licheniformis penP β-lactamase and B. cereus β-lactamase II, the labeled enzymes were mixed with the bacterial cultures, and the mixtures were made up to 300 μl with 50 mM phosphate buffer (pH 7.0) in a 96-well microtiter plate (Corning Costar). For the purpose of comparison, B. subtilis cultures, which produced no β-lactamase, were set up as negative controls. For E. coli. TEM-1 β-lactamase, the labeled enzymes were mixed with the bacterial cultures without dilution. E. coli. cultures, which produced no β-lactamase, were set up as negative controls for comparison. The antibiotics were then added to the bacterial samples by the injectors.
(§3) The results from the time-resolved fluorescence measurements of the labeled enzyme (1.2×10^−7 M) in the presence of various bacterial cultures and β-lactam antibiotics (1.0×10^−4 M) are shown in FIGS. 23 to 26.

Experiment [2] addresses T2, E166C mutant of β-lactamase I (Bacillus cereus, UniProt P00809, E185C).
T2 construct: made in house; host or cells: B. subtilis 1A304 (φ105MU331)
T2 sequence (P00809 28-306 E185C): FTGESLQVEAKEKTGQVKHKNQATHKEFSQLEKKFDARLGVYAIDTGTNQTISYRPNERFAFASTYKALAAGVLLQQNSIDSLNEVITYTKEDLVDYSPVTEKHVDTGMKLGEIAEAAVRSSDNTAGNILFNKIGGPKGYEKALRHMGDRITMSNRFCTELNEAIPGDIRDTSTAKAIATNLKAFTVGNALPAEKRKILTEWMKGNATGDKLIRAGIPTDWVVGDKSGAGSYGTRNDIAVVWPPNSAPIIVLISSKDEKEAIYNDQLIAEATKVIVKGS
Briefly: Spectrophotometric substrate hydrolysis, steady-state kinetics. The experiment is classed as biochemical. The note with it: 50 mM potassium phosphate buffer pH 7.0, 20° C. On the procedure:
(§4) The hydrolytic activities of the wild-type β-lactamase I, E166C and E166Cf mutants towards penicillin G, penicillin V and ampicillin (Sigma) were monitored by the spectrophotometric method. The spectrophotometric measurements were performed on a Perkin Elmer Lambda Bio20 UV/Vis spectrometer. Substrate hydrolysis was monitored at a fixed wavelength: 235 nm for ampicillin, 232 nm for penicillin G and penicillin V. The initial rate of substrate hydrolysis occurring within 5 min was determined in duplicate at each of 6 different substrate concentrations in 50 mM potassium phosphate buffer (pH 7.0) at 20° C. The initial rates determined were then treated as described in Reference 5 to calculate the Michaelis constants (Km) and turnover numbers (kcat) using non-linear regression analysis (equation 1):
(§5) [formula] where v is the initial rate of substrate hydrolysis, Vmax the maximum rate of reaction, [S] the initial substrate concentration, Km the Michaelis constant and kcat=Vmax/[Enzyme].
(§6) The measured steady-state kinetic parameters for hydrolysis of penicillin G, penicillin V and ampicillin by the wild-type β-lactamase I, E166C and E166Cf mutants are summarized in Table 1.

A further experiment concerns the target T3, B. cereus β-lactamase II (Bacillus cereus, UniProt P04190).
T3 construct: made in house; host or cells: B. subtilis 1A304 (φ105MU331); whole culture used, not purified
Put plainly: Drug screening: E166Cf fluorescence in presence of bacterial β-lactamase culture. The experiment is classed as biochemical. Also on record: key: −: Decline in fluorescence signal (presence of beta-lactam hydrolysis); +: No decline in fluorescence signal (absence of beta-lactam hydrolysis). As to conditions: antibiotic 1.0×10^−4 M, E166Cf 1.2×10^−7 M. On the procedure:
as §1
(§7) The β-lactamase II, penPC β-lactamase and penP β-lactamase were expressed in B. subtilis 1A304 (φ105MU331). These enzymes were prepared according to the procedures described previously (Reference 7: Thomwell, S. J. East, A. K., Errington, J. An efficient expression and secretion system based on Bacillus subtilis phage phi 105 and its uses for the production for B. cereus β-lactamase I. (1993) Gene 133, 47-53) with slight modifications. A bacterial strain was streaked on an agar plate containing 5 μg/ml chloramphenicol, and the plate was incubated at 37° C. for 24 h. A single bacterial colony from the agar plate was inoculated into 100 ml of sterilized BHY medium (37 g/l brain heart infusion and 5 g/l yeast extract) which was then incubated at 37° C. with shaking at 300 rpm overnight. About 7 ml of overnight inoculum was added to a baffled conical flask containing 100 ml of sterilized BHY medium. The inoculated medium was incubated at 37° C. with shaking at 300 rpm. When the optical density of the bacterial culture at 600 nm reached 3.5 to 4.0, the bacterial culture was heated in a water bath at 51° C. for 5 min. Afterwards, the bacterial culture was incubated at 37° C. with shaking at 300 rpm for a further 6 h. The bacterial culture was then harvested and stored at −20° C.
as §2, §3

For experiment [3], the target named is T4, B. licheniformis penP β-lactamase (Bacillus licheniformis, UniProt P00808).
T4 construct: made in house; host or cells: B. subtilis 1A304 (φ105MU331); whole culture used, not purified
The description is as above. The experiment is classed as biochemical. On the set-up: key: −: Decline in fluorescence signal (presence of beta-lactam hydrolysis); +: No decline in fluorescence signal (absence of beta-lactam hydrolysis). As to conditions: antibiotic 1.0×10^−4 M, E166Cf 1.2×10^−7 M. On the procedure:
as §1, §7, §2, §3

Experiment [4] concerns the target T5, B. cereus penPC β-lactamase (Bacillus cereus, UniProt P00809).
T5 construct: made in house; host or cells: B. subtilis 1A304 (φ105MU331); whole culture used, not purified
The description is as above. The experiment is classed as biochemical. As to conditions: antibiotic 1.0×10^−4 M, E166Cf 1.2×10^−7 M. Also on record: key: −: Decline in fluorescence signal (presence of beta-lactam hydrolysis); +: No decline in fluorescence signal (absence of beta-lactam hydrolysis). On the procedure: as §1, §7, §2, §3

Experiment [5] concerns the target T6, E166Cf enzyme (Bacillus cereus, UniProt P00809, E185C).
T6 construct: made in house; host or cells: B. subtilis 1A304 (φ105MU331); then labelled chemically
T6 sequence (P00809 28-306 E185C): T2 sequence (P00809 28-306 E185C)
Put plainly: Detection of β-lactam antibiotics in milk by E166Cf fluorescence. The note with it: untreated milk; E166Cf 1.2×10^−7 M. As for the experimental part: Fluorescence measurements of the E166Cf enzyme in milk in the presence of penicillin G and ampicillin were performed on a FLUOstar microplate reader (BMG Labtechnologies) equipped with two sample injectors. Excitation and emission filters of 485 and 520 nm respectively were used. Milk (pasteurized and homogenized, Nestle Dairy Farm) was purchased at a local supermarket. The labeled enzyme was mixed with the milk sample in a 96-well microtiter plate (Corning Costar). The antibiotics were then added to the mixtures by the injectors.
FIGS. 21 and 22 show the results from the time-resolved fluorescence measurements of the labeled enzyme (1.2×10^−7 M) in untreated milk in the presence of various concentrations of penicillin G and ampicillin respectively.

The target in experiment [6] is T7, E166Cf (fluorescein-labeled E166C mutant of β-lactamase I) (Bacillus cereus, UniProt P00809, E185C).
T7 construct: made in house; host or cells: B. subtilis 1A304 (φ105MU331); then labelled chemically
T7 sequence (P00809 28-306 E185C): T2 sequence (P00809 28-306 E185C)
Briefly: Spectrophotometric substrate hydrolysis, steady-state kinetics. As to conditions: E166Cf; 50 mM potassium phosphate buffer pH 7.0, 20° C. The experiment is classed as biochemical. On the procedure: as §4, §5, §6
At high substrate concentration (1.0×10^−5 and 1.0×10^−4 M), the penicillin substrates rapidly occupy the active sites to form the ES complexes, thus switching on the fluorescence of the fluorescein labels instantaneously. […] This can be verified by the fact that the ‘plateau time’ (8 and 22 min for 1.0×10^−5 and 1.0×10^−4 M penicillin G respectively) is consistent with the ‘substrate hydrolysis time’ determined by spectrophotometric assays (7 and 20 min for 1.0×10^−5 and 1.0×10^−4 M penicillin G respectively). When most of the penicillin substrates have been hydrolyzed to carboxylic acids, the fluorescence signal of the labeled enzyme will decline subsequently.

For experiment [7], the target named is T6, E166Cf enzyme. Put plainly: Time-resolved fluorescence of E166Cf enzyme with β-lactamase inhibitors. The note with it: E166Cf 1.2×10^−7 M, 50 mM phosphate buffer pH 7.0. It is filed as biochemical. On the procedure: Time-resolved fluorescence measurements of the E166Cf enzyme in the presence of sulbactam and clavulanate were performed on a Perkin Elmer LS50B spectrofluorometer. The excitation and emission wavelengths were set at 494 and 515 nm respectively. Both excitation and emission slit widths were set at 5 nm. All fluorescence measurements were performed at room temperature.
The fluorescence signals of the labeled enzyme (1.2×10^−7 M) obtained with sulbactam (1.0×10^−4 M) and clavulanate (1.0×10^−3 M) in 50 mM phosphate buffer (pH 7.0) are entirely different (FIGS. 18 and 19).

T3 sequence (P04190 31-257): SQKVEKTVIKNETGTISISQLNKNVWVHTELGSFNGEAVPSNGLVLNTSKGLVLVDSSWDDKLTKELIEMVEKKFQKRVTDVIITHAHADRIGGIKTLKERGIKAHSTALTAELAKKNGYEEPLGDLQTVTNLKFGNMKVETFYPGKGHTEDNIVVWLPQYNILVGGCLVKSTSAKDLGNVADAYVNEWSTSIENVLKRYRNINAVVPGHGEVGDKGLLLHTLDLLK
T1 sequence (P62593 24-286 limits assumed): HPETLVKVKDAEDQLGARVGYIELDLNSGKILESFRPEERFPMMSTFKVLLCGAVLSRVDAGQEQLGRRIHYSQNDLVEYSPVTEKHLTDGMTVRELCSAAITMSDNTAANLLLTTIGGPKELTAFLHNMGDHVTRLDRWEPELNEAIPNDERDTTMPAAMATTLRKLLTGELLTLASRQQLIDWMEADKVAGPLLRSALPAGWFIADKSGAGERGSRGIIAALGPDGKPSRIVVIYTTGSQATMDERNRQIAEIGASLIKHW
T5 sequence (P00809 28-306): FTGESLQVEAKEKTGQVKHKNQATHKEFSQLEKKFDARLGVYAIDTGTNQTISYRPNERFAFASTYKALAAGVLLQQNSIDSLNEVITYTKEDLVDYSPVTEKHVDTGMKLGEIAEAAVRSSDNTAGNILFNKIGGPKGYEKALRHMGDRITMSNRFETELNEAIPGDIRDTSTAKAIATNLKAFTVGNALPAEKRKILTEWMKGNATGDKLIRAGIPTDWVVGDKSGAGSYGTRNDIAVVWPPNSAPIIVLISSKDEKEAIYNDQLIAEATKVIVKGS
T4 sequence (P00808 27-307): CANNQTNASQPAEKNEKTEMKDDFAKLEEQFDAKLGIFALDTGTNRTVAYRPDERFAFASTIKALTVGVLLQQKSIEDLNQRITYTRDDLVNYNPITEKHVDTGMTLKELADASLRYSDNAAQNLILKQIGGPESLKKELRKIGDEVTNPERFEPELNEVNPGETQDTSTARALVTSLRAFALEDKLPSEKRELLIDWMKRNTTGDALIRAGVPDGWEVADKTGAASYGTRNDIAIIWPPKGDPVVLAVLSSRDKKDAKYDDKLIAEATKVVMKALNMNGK

On to `CC1(C)S[C@@H]2[C@H](NC(=O)[C@H](N)c3ccccc3)C(=O)N2[C@H]1C(=O)O` [Ampicillin, ampicillin], for which the “fluorescence signal of E166Cf (beta-lactam hydrolysis)” value (in experiment [1]; at B. cereus β-lactamase II; in experiment [3]; in experiment [4]) was “−” each time. Further, the results for the Km in experiment [2] and in experiment [6] were 306 ± 30 µM and 262 ± 31 µM, respectively. Moreover, the values for the kcat in experiment [2] and in experiment [6] were 4.1 ± 0.1 s⁻¹ and 6.2 ± 0.2 s⁻¹, respectively. Moreover, on E166Cf enzyme [5], the “lowest concentration detected by the labeled enzyme” value was 10^−6 M.
On to `CC1(C)[C@H](C(=O)O)N2C(=O)C[C@H]2S1(=O)=O` [sulbactam], for which the “time course of E166Cf fluorescence intensity at 515 nm” value on E166Cf enzyme [7] (1.0×10^−4 M inhibitor) is “increases rapidly at the initial stage and then declines slowly”.
In the case of `O=C(O)[C@H]1/C(=C/CO)O[C@@H]2CC(=O)N21` [clavulanate], the “time course of E166Cf fluorescence signal at 515 nm” value on E166Cf enzyme [7] (1.0×10^−3 M inhibitor) is “instantaneous increase in fluorescence signal which declines rapidly within 200 s and then levels off to a plateau”.

What is called Km is the concentration of substrate that gives half-maximal velocity. One may read the kcat as the maximal rate divided by the concentration of active sites.
